Experimental data taken from patent publication US20240023546A1, “TRIGEMINAL CUE FOR WILDLIFE REPELLENTS” (The United States of America, as Represented by the …, priority 2022, published 2024).

System: cottontail rabbits
Assay: no-choice feeding experiment, repellency of cottontail rabbits from treated whole oats
Assay type: in vivo
Source text: As used herein, the term “repellency” means the percent decrease in consumption (or occupancy) of a treated substrate relative to an untreated substrate. […] These values can be used to define a range, such as 50% to 75%, or 75% to 85%, or 25% to 50% decrease in consumption (or occupancy) of a treated substrate relative to an untreated substrate.
We conducted one no-choice feeding experiment for each unique combination of the trigeminal nerve irritant (methyl anthranilate) and the animal repellent (anthraquinone). For each feeding experiment, we used 24-30 cottontail rabbits to evaluate the efficacy of our repellent formulations. For each experiment, we offered untreated food for up to three days of the pretreatment and repellent-treated food during the 1-day test. For each experiment, our three test treatments (n=8−10 rabbits per treatment group) included food treated with (1) the methyl anthranilate alone, (2) the anthraquinone alone and (3) the combination of the methyl anthranilate and the anthraquinone.

| Compound | % Repellency (whole oats treated with 5000 ppm MA alone, 1-day no-choice test) | % Repellency (whole oats treated with 5000 ppm MA alone, 1-day no-choice test, listed as MA) | % Repellency (whole oats treated with 10,000 ppm MA alone, 1-day no-choice test) | % Repellency (rabbit, in vivo) |
| --- | --- | --- | --- | --- |
| COC(=O)c1ccccc1N [methyl anthranilate] | 6% | 6% | 62% |  |
| O=C1c2ccccc2C(=O)c2ccccc21 [anthraquinone, 9,10-anthraquinone] |  |  |  | 36% |
